In ChEMBL document CHEMBL5331077, “Combining pharmacophore models derived from DNA-encoded chemical libraries with structure-based exploration to predict Tankyrase 1 inhibitors” (Eur J Med Chem, 2023):

How the values were obtained:
[1] = target: T1, Poly [ADP-ribose] polymerase tankyrase-1 (Homo sapiens, UniProt O95271); assay: Inhibition of TNKS1 (unknown origin) using biotinylated NAD as substrate preincubated for 30 mins followed by substrate addition and measured after 1 hr by BioTek synergy 2 microplate reader analysis
T1 sequence (O95271 whole entry): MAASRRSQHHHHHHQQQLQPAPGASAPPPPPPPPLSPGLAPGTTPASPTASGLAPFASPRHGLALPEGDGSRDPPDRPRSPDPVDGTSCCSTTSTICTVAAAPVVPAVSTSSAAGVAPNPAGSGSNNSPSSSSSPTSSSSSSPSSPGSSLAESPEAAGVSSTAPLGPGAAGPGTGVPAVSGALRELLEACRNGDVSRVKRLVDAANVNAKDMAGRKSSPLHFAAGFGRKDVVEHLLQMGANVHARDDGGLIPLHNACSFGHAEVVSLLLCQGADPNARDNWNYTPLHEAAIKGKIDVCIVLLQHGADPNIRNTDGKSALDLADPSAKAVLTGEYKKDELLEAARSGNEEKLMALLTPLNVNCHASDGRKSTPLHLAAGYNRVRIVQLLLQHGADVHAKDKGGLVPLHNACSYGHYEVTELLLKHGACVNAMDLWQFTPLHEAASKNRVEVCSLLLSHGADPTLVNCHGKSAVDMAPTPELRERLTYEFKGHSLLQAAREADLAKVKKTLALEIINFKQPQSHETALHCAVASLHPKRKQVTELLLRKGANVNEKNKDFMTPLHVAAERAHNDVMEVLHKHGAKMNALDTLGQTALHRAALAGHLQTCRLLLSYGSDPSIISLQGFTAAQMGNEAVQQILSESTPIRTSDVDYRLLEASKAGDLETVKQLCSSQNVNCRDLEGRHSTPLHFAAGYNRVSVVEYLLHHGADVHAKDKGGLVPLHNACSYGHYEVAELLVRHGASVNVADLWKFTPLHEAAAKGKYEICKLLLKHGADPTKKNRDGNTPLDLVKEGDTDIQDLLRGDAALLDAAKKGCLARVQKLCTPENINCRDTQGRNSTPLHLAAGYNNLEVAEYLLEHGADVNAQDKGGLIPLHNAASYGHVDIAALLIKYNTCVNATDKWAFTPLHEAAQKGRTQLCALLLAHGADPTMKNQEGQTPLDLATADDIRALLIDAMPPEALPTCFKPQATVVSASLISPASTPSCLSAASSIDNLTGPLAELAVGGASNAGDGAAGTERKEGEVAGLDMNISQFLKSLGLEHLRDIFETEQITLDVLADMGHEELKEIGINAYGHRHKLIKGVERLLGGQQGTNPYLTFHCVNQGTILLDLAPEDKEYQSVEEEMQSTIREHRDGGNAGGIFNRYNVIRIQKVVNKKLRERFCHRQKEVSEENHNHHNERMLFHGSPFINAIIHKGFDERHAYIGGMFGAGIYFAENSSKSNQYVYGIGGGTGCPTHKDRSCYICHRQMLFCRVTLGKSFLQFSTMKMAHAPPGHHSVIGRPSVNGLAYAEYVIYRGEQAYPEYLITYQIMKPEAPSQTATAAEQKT

[2] = target: T2, Poly [ADP-ribose] polymerase tankyrase-1 (Homo sapiens) (UniProt O95271); assay: Inhibition of TNKS1 (unknown origin) at 10 uM using biotinylated NAD as substrate preincubated for 30 mins followed by substrate addition and measured after 1 hr by BioTek synergy 2 microplate reader analysis relative to control; details: time 90.0 min
T2 sequence (whole entry): T1 sequence (O95271 whole entry)

[3] = target: T2, Poly [ADP-ribose] polymerase tankyrase-1 (Homo sapiens); assay: Inhibition of TNKS1 (unknown origin) at 100 nM using biotinylated NAD as substrate preincubated for 30 mins followed by substrate addition and measured after 1 hr by BioTek synergy 2 microplate reader analysis relative to control; details: time 90.0 min
[4] = target: T3, Poly [ADP-ribose] polymerase tankyrase-2 (Homo sapiens) (UniProt Q9H2K2); assay: Inhibition of TNKS2 (unknown origin) at 50 nM relative to control
T3 sequence (whole entry): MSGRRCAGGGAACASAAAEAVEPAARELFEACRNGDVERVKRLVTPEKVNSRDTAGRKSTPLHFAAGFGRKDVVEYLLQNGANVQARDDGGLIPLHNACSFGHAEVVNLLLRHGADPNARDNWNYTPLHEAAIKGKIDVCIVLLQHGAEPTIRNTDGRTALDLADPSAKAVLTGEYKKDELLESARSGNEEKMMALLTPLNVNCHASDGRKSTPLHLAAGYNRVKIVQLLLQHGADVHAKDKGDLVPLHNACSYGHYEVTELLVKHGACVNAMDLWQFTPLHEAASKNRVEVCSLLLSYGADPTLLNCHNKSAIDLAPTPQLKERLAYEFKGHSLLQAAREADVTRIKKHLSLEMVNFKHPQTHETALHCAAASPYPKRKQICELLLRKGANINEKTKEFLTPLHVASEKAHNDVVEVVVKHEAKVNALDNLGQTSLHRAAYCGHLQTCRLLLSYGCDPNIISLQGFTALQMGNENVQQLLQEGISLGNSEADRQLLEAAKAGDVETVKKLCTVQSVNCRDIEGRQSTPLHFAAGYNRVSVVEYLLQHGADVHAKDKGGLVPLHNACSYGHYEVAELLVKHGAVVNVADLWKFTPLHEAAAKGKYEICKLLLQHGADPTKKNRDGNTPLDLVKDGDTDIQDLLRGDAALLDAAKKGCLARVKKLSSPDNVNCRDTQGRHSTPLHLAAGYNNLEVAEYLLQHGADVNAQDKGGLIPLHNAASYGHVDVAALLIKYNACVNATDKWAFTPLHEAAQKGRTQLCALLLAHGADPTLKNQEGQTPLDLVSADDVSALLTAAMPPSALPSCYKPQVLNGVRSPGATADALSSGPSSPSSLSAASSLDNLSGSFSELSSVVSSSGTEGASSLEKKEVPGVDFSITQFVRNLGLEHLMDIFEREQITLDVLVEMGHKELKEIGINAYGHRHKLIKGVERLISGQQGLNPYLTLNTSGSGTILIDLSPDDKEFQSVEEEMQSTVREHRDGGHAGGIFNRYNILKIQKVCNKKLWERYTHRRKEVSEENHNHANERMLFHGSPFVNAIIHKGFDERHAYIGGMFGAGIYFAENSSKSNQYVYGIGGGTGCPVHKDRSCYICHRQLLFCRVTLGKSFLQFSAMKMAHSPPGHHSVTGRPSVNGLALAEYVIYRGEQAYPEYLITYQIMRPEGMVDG

[5] = target: Poly [ADP-ribose] polymerase 2 (Homo sapiens) (UniProt Q9UGN5); assay: Inhibition of human PARP2 at 50 nM relative to control
[6] = target: T3, Poly [ADP-ribose] polymerase tankyrase-2 (Homo sapiens); assay: Inhibition of TNKS2 (unknown origin) at 0.5 uM relative to control
[7] = target: Poly [ADP-ribose] polymerase 1 (Homo sapiens) (UniProt P09874); assay: Inhibition of human PARP1 at 50 nM relative to control
[8] = target: Poly [ADP-ribose] polymerase 1 (Homo sapiens) (UniProt P09874); assay: Inhibition of human PARP1 at 0.5 uM relative to control
[9] = target: Poly [ADP-ribose] polymerase 2 (Homo sapiens) (UniProt Q9UGN5); assay: Inhibition of human PARP2 at 0.5 uM relative to control

Sequence of Poly [ADP-ribose] polymerase 2 (Homo sapiens) (Q9UGN5 whole entry): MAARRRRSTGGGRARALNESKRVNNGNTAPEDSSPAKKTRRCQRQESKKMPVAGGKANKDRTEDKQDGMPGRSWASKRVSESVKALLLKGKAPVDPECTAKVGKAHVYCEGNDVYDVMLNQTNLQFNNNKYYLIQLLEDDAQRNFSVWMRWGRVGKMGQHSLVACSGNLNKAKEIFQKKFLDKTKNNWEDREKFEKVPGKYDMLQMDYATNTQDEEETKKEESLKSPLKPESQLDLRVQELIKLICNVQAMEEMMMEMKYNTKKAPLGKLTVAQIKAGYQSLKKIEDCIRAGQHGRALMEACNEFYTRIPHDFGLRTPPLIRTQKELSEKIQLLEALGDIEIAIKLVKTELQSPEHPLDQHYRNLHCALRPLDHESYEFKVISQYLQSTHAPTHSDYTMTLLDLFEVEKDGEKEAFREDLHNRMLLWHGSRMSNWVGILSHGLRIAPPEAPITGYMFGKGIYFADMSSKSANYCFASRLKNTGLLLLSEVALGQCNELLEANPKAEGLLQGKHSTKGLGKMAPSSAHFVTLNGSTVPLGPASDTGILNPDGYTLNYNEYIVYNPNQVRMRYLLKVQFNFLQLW
Sequence of Poly [ADP-ribose] polymerase 1 (Homo sapiens) (P09874 whole entry): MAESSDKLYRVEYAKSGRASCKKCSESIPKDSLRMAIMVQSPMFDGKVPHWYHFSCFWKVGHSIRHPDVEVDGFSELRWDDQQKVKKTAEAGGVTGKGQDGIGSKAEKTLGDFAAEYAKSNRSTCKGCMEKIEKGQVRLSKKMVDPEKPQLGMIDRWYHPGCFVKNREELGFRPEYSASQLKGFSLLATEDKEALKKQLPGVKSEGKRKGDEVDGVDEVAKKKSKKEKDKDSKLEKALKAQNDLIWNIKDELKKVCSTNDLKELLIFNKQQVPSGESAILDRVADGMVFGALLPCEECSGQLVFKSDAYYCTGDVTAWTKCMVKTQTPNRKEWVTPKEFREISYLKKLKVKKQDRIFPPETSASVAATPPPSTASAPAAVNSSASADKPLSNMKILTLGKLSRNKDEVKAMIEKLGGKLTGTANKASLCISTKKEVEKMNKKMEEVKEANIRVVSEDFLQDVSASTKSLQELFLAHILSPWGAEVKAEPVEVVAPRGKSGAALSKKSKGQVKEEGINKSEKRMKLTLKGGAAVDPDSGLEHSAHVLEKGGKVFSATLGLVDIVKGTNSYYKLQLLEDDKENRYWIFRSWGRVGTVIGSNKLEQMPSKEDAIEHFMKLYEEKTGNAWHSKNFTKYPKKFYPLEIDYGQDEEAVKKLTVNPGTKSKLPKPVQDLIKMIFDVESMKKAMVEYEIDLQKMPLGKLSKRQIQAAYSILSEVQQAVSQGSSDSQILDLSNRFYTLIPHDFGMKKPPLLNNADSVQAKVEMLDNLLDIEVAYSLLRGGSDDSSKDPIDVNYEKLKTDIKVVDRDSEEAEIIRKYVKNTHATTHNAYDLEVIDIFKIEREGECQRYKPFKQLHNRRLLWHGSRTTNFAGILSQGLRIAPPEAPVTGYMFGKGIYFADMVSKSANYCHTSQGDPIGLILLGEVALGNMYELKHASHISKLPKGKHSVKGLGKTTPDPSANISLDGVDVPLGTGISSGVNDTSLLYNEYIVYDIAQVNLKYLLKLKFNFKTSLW

| SMILES | IC50 [1] | inhibition [2] | also measured |
| --- | --- | --- | --- |
| COc1ccc2c(c1)C(CC(=O)NCCNC(=O)CCn1c(=O)[nH]c(=O)c3ccccc31)CC2=O (stereo not drawn) | 15 nM | – | – |
| Cc1ccc(C)c(NC(=O)CSc2nnc(Cc3cc(=O)[nH]c(=O)[nH]3)n2-c2ccc(Cl)cc2)c1 | – | 7% | inhibition [3]: 0% |
| O=C(CCc1nc2ccccc2c(=O)[nH]1)Nc1ccc(-n2cnnn2)cc1 | – | 67% | – |
| Cc1cnc(C(=O)NCCNC(=O)Cn2[nH]c(=O)c3ccccc3c2=O)cn1 | 47 nM | – | inhibition [4]: 49%; inhibition [5]: 0%; inhibition [6]: 92%; inhibition [7]: 14%; inhibition [8]: 52%; inhibition [9]: 52% |
| COc1ccc(C(N)=O)cc1NC(=O)c1cccc(-c2cnc3[nH]c(=O)n(C)c3c2)c1 | – | 97% | inhibition [3]: 3% |
| Cc1ccc2c(c1)NC(=O)C2CC(=O)NCCNC(=O)CCn1c(=O)[nH]c(=O)c2ccccc21 (stereo not drawn) | 75 nM | – | – |
| O=C(Cc1n[nH]c(=O)c2ccccc12)Nc1ccc(Cc2nc3ccccc3s2)cc1 | – | 35% | – |
| CNC(=O)[C@H](CNC(=O)c1cccc(COc2ccccc2C(N)=O)c1)NC(=O)COc1cc(C)cc2oc(=O)c3c(c12)CCC3 | 33 nM | – | – |
| O=C(Cn1cnc2ccccc2c1=O)N1CCC(c2nnc(-c3ccco3)s2)CC1 | – | 0% | – |
| O=C(NCCNC(=O)c1n[nH]c(=O)c2ccccc12)c1cccc(CN2C(=O)CNC2=O)c1 | 69 nM | – | inhibition [4]: 49%; inhibition [5]: 3%; inhibition [6]: 93%; inhibition [7]: 17%; inhibition [8]: 47%; inhibition [9]: 53% |
| CC(=O)N1CCC[C@H]1C(=O)NCCNC(=O)CCn1c(=O)[nH]c(=O)c2ccccc21 | 26000 nM | – | – |
| O=C(NCc1ccc(-c2ccc3c(c2)CCCO3)cc1)c1nc2ccccc2c(=O)[nH]1 | – | 74% | – |
| O[C@H](c1ccccc1)c1cn(C2CCN(Cc3cnc4ccccc4c3)CC2)nn1 | – | 5% | – |
| CNC(=O)[C@H](CNC(=O)Cn1[nH]c(=O)c2ccccc2c1=O)NC(=O)c1cnc(C)cn1 | 140 nM | – | – |
| CC(=O)N1CCC[C@H]1C(=O)NCCNC(=O)Cn1[nH]c(=O)c2ccccc2c1=O | 4900 nM | – | – |
| O=C(CCn1c(=O)[nH]c(=O)c2ccccc21)NCCNC(=O)c1cnc2ccccc2c1 | 8.3 nM | – | – |
| O=C(Cc1n[nH]c(=O)c2ccccc12)OCC(=O)N1CCN(c2ccccn2)CC1 | 22 nM | 100% | inhibition [3]: 78% |
